Key:
Assay in all cases: AUC of viability dose-response curve (% viability x log10 dose units); higher = less sensitive
Conditions in all cases: 48 h
[1] = test system: P12-Ichikawa
Outline: (§1)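 Leukemia cells adapted to each medium (500 or 1000 cells/well, 1536-well plates) were exposed to library compounds in DMSO for 48 h at 37°C at 11 threefold doses, 47 μM to 0.79 nM. Luminescence by CellTiter-Glo One was normalised per plate to DMSO and cell-free wells, then fitted with a four-parameter log-logistic curve on log10 dose. Curves above full viability were scaled and quality-control failures removed before area under the curve was integrated by trapezoidal rule.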

[2] = test system: NOMO1
Outline: as §1

[3] = test system: SEM cells
Outline: as §1

[4] = RPMI 5 mM glucose + 10% dialyzed FBS

Compound | AUC of viability dose-response curve ([1]; HPLM + 10% dialyzed FBS) | AUC of viability dose-response curve ([1]; RPMI 5 mM glucose + 10% FBS) | AUC of viability dose-response curve [1, 4] | AUC of viability dose-response curve ([2]; HPLM + 10% dialyzed FBS) | AUC of viability dose-response curve ([2]; RPMI 5 mM glucose + 10% FBS) | AUC of viability dose-response curve [2, 4] | AUC of viability dose-response curve ([3]; HPLM + 10% dialyzed FBS) | AUC of viability dose-response curve ([3]; RPMI 5 mM glucose + 10% FBS) | AUC of viability dose-response curve [3, 4]
O=P1(NCCCl)OCCCN1CCCl (stereo not drawn) | 424 | 402 | 391 | – | – | – | – | – | –
C[C@@H](Oc1ccc2[nH]nc(/C=C/c3cnn(CCO)c3)c2c1)c1c(Cl)cncc1Cl | 386 | 385 | 374 | 401 | 379 | 381 | – | – | –
COc1cc2nc(N3CCN(C(=O)c4ccco4)CC3)nc(N)c2cc1OC | – | – | – | 411 | 384 | 392 | 332 | 383 | 377
COc1cc([C@@H]2c3cc4c(cc3[C@@H](O[C@@H]3O[C@@H]5CO[C@@H](C)O[C@H]5[C@H](O)[C@H]3O)[C@H]3COC(=O)[C@H]23)OCO4)cc(OC)c1O | 268 | 239 | 244 | 345 | 314 | 311 | – | – | –
Cc1cccc(Nc2nc(N[C@@H]3CCCC[C@@H]3N)ncc2C(N)=O)c1 | 334 | 380 | 368 | 424 | 411 | 409 | – | – | –
CCN(CCO)CCCC(C)Nc1ccnc2cc(Cl)ccc12 (stereo not drawn) | 392 | 400 | 384 | 417 | 429 | 459 | – | – | –
COC1=CC2=C(C=C1CC3=C(F)C(=CC=C3)Cl)C(=O)\C(=C/N2[C@H](CO)C(C)C)C(O)=O | 446 | 421 | 423 | 445 | 452 | 454 | – | – | –
OCCN1CCN(CCCN2c3ccccc3Sc3ccc(C(F)(F)F)cc32)CC1 | 403 | 402 | 418 | 411 | 420 | 454 | – | – | –
O=C1N\N=C(\C[C@@H]2CCN(C2)C(=O)C3CC3)N1C4=CC=C(C=C4)C5=CC=C6OC=CC6=C5 | 400 | 376 | 405 | 448 | 397 | 394 | – | – | –
Cc1ccccc1C(C(=O)NC1CCCC1)N(C(=O)Cn1cnc2ccccc21)c1cccc(F)c1 (stereo not drawn) | 446 | 439 | 446 | – | – | – | 429 | 464 | 469
COc1cc([C@@H]2c3cc4c(cc3[C@H](O)[C@H]3COC(=O)[C@H]23)OCO4)cc(OC)c1OC | 69.5 | 70.5 | 75.2 | 170 | 126 | 138 | – | – | –
NNC(=O)c1ccncc1 | 453 | 468 | 460 | 454 | 444 | 456 | – | – | –
O=C(O)c1nn(Cc2ccc(Cl)cc2Cl)c2ccccc12 | 423 | 412 | 379 | – | – | – | 387 | 400 | 375
COC1=C(CC=C(C)C)C2=C(\C=C/C(=O)O2)C=C1 | 413 | 439 | 416 | 470 | 455 | 460 | – | – | –
CN1CCN(CC1)C/2=N/C3=CC=CC=C3NC4=C2C=C(C)S4 | 465 | 458 | 458 | – | – | – | 467 | 454 | 473
COc1ccc(-c2cc3c(C)nc(N)nc3n([C@H]3CC[C@H](OCCO)CC3)c2=O)cn1 | 351 | 299 | 304 | 286 | 322 | 278 | – | – | –

Reference: the supplement of paper PMC11451515
